Experimental data taken from article PMC6427567, “Discovery of novel coumarin derivatives as potent and orally bioavailable BRD4 inhibitors based on scaffold hopping” (Journal of Enzyme Inhibition and Medicinal Chemistry, 2019).

Key:
[1] = target: T1, BRD4-full length: recombinant human bromodomain containing protein 4 (bromodomain 1 and 2; aa 2–1362) (Homo sapiens, UniProt O60885); assay: BRD4 binding assay (AlphaScreen); conditions: for IC50 / BRD4 binding activity in words: AlphaScreen assay; for LE (Ligand Efficiency): LE = 1.4 (pIC50/heavy atoms)
T1 construct: (bromodomain 1 and 2; aa 2–1362; Genbank Accesstion # NM_058243); host or cells: Sf9 insect cells
Procedure: The binding affinity was evaluated by a using AlphaScreen technology […] assay. The biotinylated peptide binding to the reader domain of His-tagged protein is monitored by the singlet oxygen transfer from the Streptavidin-coated donor beads to the AlphaScreen Ni-chelate acceptor beads. Reagent:Reaction buffer:50 mM Hepes, pH7.5, 100 mM NaCl, 0.05% CHAPS, 0.1% BSA, and 1% DMSO (the final DMSO concentration may different depending on compound stock and test concentrations). […] MW = 156.5 kDa. […] Reaction procedure: (1) Deliver 2.5× BRD in wells of reaction plate except No BRD control wells. Add buffer instead. (2) Deliver compounds in 100% DMSO into the BRD mixture by Acoustic technology (Echo550; nanoliter range). Spin down and pre-incubation for 30 min. (3) Deliver 5 × Ligand. Spin and shake. (4) Incubate for 30 min at room temperature with gentle shaking. (5) Deliver 5× donor beads. Spin and shake. (6) Deliver 5 × acceptor beads. Spin and shake. Then gentle shaking in the dark for 60 min. (7) Alpha measurement (Ex/Em = 680/520–620 nm) in Enspire.

[2] = set-up: method as in PMID 23095041; conditions: cited from earlier work

| Compound | IC50 [1] [µM] | LE (Ligand Efficiency) [1] | other results |
| --- | --- | --- | --- |
| CC(C)(C)c1ccc(S(=O)(=O)Nc2ccc3oc(=O)ccc3c2)cc1 [Compound 8, 4-(tert-butyl)-N-(2-oxo-2H-chromen-6-yl)benzene sulphonamide] | 5.09 | 0.30 | – |
| O=c1ccc2cc(NS(=O)(=O)c3ccccc3)ccc2o1 [Compound 1, N-(2-oxo-2H-chromen-6-yl)benzenesulphonamide] | 6.59 | 0.35 | – |
| N#Cc1cccc(S(=O)(=O)Nc2ccc3oc(=O)ccc3c2)c1 [Compound 9, 3-cyano-N-(2-oxo-2H-chromen-6-yl)benzene sulphonamide] | 5.03 | 0.32 | – |
| O=c1ccc2cc(NS(=O)(=O)c3ccc(Cl)cc3Cl)ccc2o1 [Compound 12, 2,4-dichloro-N-(2-oxo-2H-chromen-6-yl)benzenesulphonamide] | 1.77 | 0.35 | – |
| CCCS(=O)(=O)Nc1ccc2oc(=O)ccc2c1 [Compound 4, N-(2-oxo-2H-chromen-6-yl)propane-1-sulphonamide] | 38.5 | 0.34 | – |
| O=c1ccc2cc(NS(=O)(=O)C3CCCCC3)ccc2o1 [Compound 2, N-(2-oxo-2H-chromen-6-yl)cyclohexanesulphonamide] | 19 | 0.31 | – |
| O=c1ccc2cc(NS(=O)(=O)C3CCCC3)ccc2o1 [Compound 3, N-(2-oxo-2H-chromen-6-yl)cyclopentanesulphonamide] | 17.9 | 0.33 | – |
| O=c1ccc2cc(NS(=O)(=O)c3ccc4c(c3)CCO4)ccc2o1 [Compound 16, N-(2-oxo-2H-chromen-6-yl)-2,3-dihydrobenzofuran-5-sulphonamide] | 18.4 | 0.28 | BRD4 binding activity in words [1]: reduction of affinity |
| COc1ccccc1S(=O)(=O)Nc1ccc2c(c1)CN(C)C(=O)N2 [PFI-1] | – | – | oral bioavailability (F) [2]: 32% |
| CCCCS(=O)(=O)Nc1ccc2oc(=O)ccc2c1 [Compound 5, N-(2-oxo-2H-chromen-6-yl)butane-1-sulphonamide] | 30 | 0.33 | – |
| O=c1ccc2cc(NS(=O)(=O)c3ccccc3Cl)ccc2o1 [Compound 10, 2-chloro-N-(2-oxo-2H-chromen-6-yl)benzenesulphonamide] | 2.21 | 0.36 | – |
| COc1ccc(S(=O)(=O)Nc2ccc3oc(=O)ccc3c2)cc1 [Compound 7, 4-methoxy-N-(2-oxo-2H-chromen-6-yl)benzene sulphonamide] | 7.31 | 0.33 | – |
| COc1ccc(NS(=O)(=O)c2ccc3oc(=O)ccc3c2)cc1 [Compound 17, N-(4-methoxyphenyl)-2-oxo-2H-chromene-6-sulphonamide] | 32.6 | – | fold decrease in potency compared with 7 (BRD4) ([1]; compared with compound 7): ~5 fold |
| COc1ccccc1S(=O)(=O)Nc1ccc2oc(=O)ccc2c1 [Compound 11, 2-methoxy-N-(2-oxo-2H-chromen-6-yl)benzenesulphonamide] | 0.98 | 0.37 | lipophilic efficiency (LipE) ([1]; LipE = −lg (IC50) − logP): 3.9; fold more potent than 1 (BRD4 IC50) ([1]; compared with compound 1): approximately 7 fold |
| O=c1ccc2cc(NS(=O)(=O)c3cccs3)ccc2o1 [Compound 14, N-(2-oxo-2H-chromen-6-yl)thiophene-2-sulphonamide] | 9.26 | 0.35 | BRD4 binding activity in words [1]: low binding activity |
| O=c1ccc2cc(NS(=O)(=O)c3ccc(Cl)cc3)ccc2o1 [Compound 6, 4-chloro-N-(2-oxo-2H-chromen-6-yl)benzenesulphonamide] | 2.97 | 0.34 | – |
| O=c1ccc2cc(NS(=O)(=O)c3ccc4ccccc4c3)ccc2o1 [Compound 15, N-(2-oxo-2H-chromen-6-yl)naphthalene-2-sulphonamide] | 12.2 | 0.28 | BRD4 binding activity in words [1]: reduction of affinity |
